In the test the test system is DU-145 cells. The format is cell-based, Human.

The source of these data is US20120207733A1 (priority 2011, published 2012).

With `C=C1[C@@H](C)[C@H]2[C@H](Cc3ccccc3)NC(=O)[C@]23[C@H](OC(C)=O)/C=C/[C@@](C)(O)C(=O)[C@@H](C)C/C=C/[C@H]3[C@@H]1O` [Cytochalasin-D], the “Effect on cell migration” value is listed as “did not migrate”; the “Relative Wound Density at 24 Hours, Mean” value was found to be 3.3 ± 0.2; the “Relative Wound Density at 24 Hours, Percent Relative to Media” value is on record as 4%.
